Results: ChEMBL document CHEMBL1201862, “PubChem BioAssay data set” (2004)
Several values for one entry are separate records, joined by “and”; a condition that tells them apart may be missing. Equal values may be shown once.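 96-well plates; 48 h exposure; 5 concentrations. Endpoints by linear interpolation between flanking doses. Not reached: highest tested concentration assigned. At the GI50, growth is halved.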 Activity calls are given as the source filed them. Cut-off read from the data, not from the text of the source: active = GI50 up to about 1.1 µM and inactive = higher.

Columns and labels:
Test in all cases: NCI anticancer screen, dose series, 48 h
OVCAR-8 = test system: OVCAR-8
CAKI-1 = test system: CAKI-1
SN12C = test system: SN12C
UO-31 = test system: UO-31
HCT-116 = test system: HCT-116
NCI/ADR-RES = test system: NCI/ADR-RES
UACC-257 = test system: UACC-257
NCI-H460 = test system: NCI-H460
IGROV-1 = test system: IGROV-1
SF-539 = test system: SF-539
MCF7 = test system: MCF7
DU-145 = test system: DU-145
SK-MEL-5 = test system: SK-MEL-5
SNB-19 = test system: SNB-19
UACC-62 = test system: UACC-62
NCI-H522 = test system: NCI-H522
RXF 393 = test system: RXF 393
MDA-MB-231 = test system: MDA-MB-231
RPMI-8226 = test system: RPMI-8226
SR = test system: SR

Compound | GI50 (OVCAR-8) | GI50 (CAKI-1) | GI50 (SN12C) | GI50 (UO-31) | GI50 (HCT-116) | GI50 (NCI/ADR-RES) | GI50 (UACC-257) | GI50 (NCI-H460) | GI50 (IGROV-1) | GI50 (SF-539) | GI50 (MCF7) | GI50 (DU-145) | GI50 (SK-MEL-5) | GI50 (SNB-19) | GI50 (UACC-62) | GI50 (NCI-H522) | GI50 (RXF 393) | GI50 (MDA-MB-231) | GI50 (RPMI-8226) | GI50 (SR)
CC1=CC(=O)/C(=C/n2c(=S)[nH]c3cc(C)ccc32)C(=O)O1 | > 100 µM (inactive) | > 100 µM (inactive) | > 100 µM (inactive) | > 100 µM (inactive) | > 100 µM (inactive) | > 100 µM (inactive) | > 100 µM (inactive) | > 100 µM (inactive) | > 100 µM (inactive) | > 100 µM (inactive) | > 100 µM (inactive) | > 100 µM (inactive) | > 100 µM (inactive) | > 100 µM (inactive) | > 100 µM (inactive) | > 100 µM (inactive) | 6.21 µM (inactive) | > 100 µM (inactive) |  | 
CCOC(=O)c1c(-c2ccc(O)c(OC)c2)c(C#N)c(=S)n(C2OC(COC(C)=O)C(OC(C)=O)C(OC(C)=O)C2OC(C)=O)c1-c1ccccc1 (configuration not stated) |  | 65.2 µM (inactive) | > 100 µM (inactive) and 88.9 µM (inactive) | 43.7 µM (inactive) and 62.1 µM (inactive) | 47.9 µM (inactive) and 63.2 µM (inactive) | 72.1 µM (inactive) | > 100 µM (inactive) and 62.2 µM (inactive) | > 100 µM (inactive) and 70.1 µM (inactive) |  |  |  | 38.5 µM (inactive) and 35.2 µM (inactive) |  | > 100 µM (inactive) |  | 18.8 µM (inactive) and 19.2 µM (inactive) | > 100 µM (inactive) and 58.9 µM (inactive) |  | 72.9 µM (inactive) | > 100 µM (inactive)
CCOP(=O)(/C=C/n1ccc(N)nc1=O)OCC | > 100 µM (inactive) | > 100 µM (inactive) | > 100 µM (inactive) |  | > 100 µM (inactive) | > 100 µM (inactive) | > 100 µM (inactive) | > 100 µM (inactive) | > 100 µM (inactive) | > 100 µM (inactive) | > 100 µM (inactive) | > 100 µM (inactive) | > 100 µM (inactive) | > 100 µM (inactive) | > 100 µM (inactive) | > 100 µM (inactive) | > 100 µM (inactive) | > 100 µM (inactive) | > 100 µM (inactive) | 
CCOC(=O)C1=CNC2=N[C@H]3CCCC[C@@H]3N2C1=O | > 100 µM (inactive) | > 100 µM (inactive) | > 100 µM (inactive) | > 100 µM (inactive) | > 100 µM (inactive) | > 100 µM (inactive) | > 100 µM (inactive) | > 100 µM (inactive) | > 100 µM (inactive) | > 100 µM (inactive) | > 100 µM (inactive) | > 100 µM (inactive) | > 100 µM (inactive) | > 100 µM (inactive) | > 100 µM (inactive) | > 100 µM (inactive) |  | > 100 µM (inactive) | > 100 µM (inactive) | 
NCCN1C(=O)CN=C(c2ccc(Cl)cc2)c2cc(Cl)ccc21 | 16.7 µM (inactive) | 16.3 µM (inactive) | 22.5 µM (inactive) | 13.9 µM (inactive) | 16.2 µM (inactive) | 15.9 µM (inactive) | 19 µM (inactive) | 18 µM (inactive) | 13.3 µM (inactive) | 17.4 µM (inactive) |  | 17.1 µM (inactive) | 16.9 µM (inactive) | 20.1 µM (inactive) | 17.9 µM (inactive) | 16.1 µM (inactive) | 11.5 µM (inactive) | 14.3 µM (inactive) | 17.6 µM (inactive) | 17.9 µM (inactive)
CCN(CC)c1ccc2cc(-c3nnc(-c4ccccc4O)o3)c(=O)oc2c1 | 2.4 µM (inactive) | 11.5 µM (inactive) |  | 10.4 µM (inactive) | 5.97 µM (inactive) | 10.5 µM (inactive) | 14.3 µM (inactive) | 7.08 µM (inactive) | 3.12 µM (inactive) | 8.18 µM (inactive) | 10.3 µM (inactive) | 10.3 µM (inactive) | 6.93 µM (inactive) | 9.68 µM (inactive) | 10.6 µM (inactive) | 5.43 µM (inactive) |  |  | 14.6 µM (inactive) | 5.87 µM (inactive)
CCOP(=O)(OCC)/C(C#N)=C\c1ccc(OC(C)=O)cc1 | > 100 µM (inactive) | > 100 µM (inactive) | > 100 µM (inactive) | > 100 µM (inactive) | > 100 µM (inactive) |  | > 100 µM (inactive) | > 100 µM (inactive) | > 100 µM (inactive) | > 100 µM (inactive) |  | > 100 µM (inactive) | > 100 µM (inactive) | > 100 µM (inactive) | > 100 µM (inactive) | > 80.2 µM (inactive) | > 100 µM (inactive) |  | > 100 µM (inactive) | > 100 µM (inactive)
COc1ccc(NCc2cccc3c(=O)c4ccc(Cl)cc4oc23)cc1 | > 100 µM (inactive) | > 100 µM (inactive) | > 100 µM (inactive) | > 100 µM (inactive) | > 100 µM (inactive) | > 100 µM (inactive) | > 100 µM (inactive) |  | > 100 µM (inactive) | > 100 µM (inactive) | > 100 µM (inactive) |  | > 100 µM (inactive) |  | > 100 µM (inactive) | > 100 µM (inactive) |  | > 100 µM (inactive) | > 100 µM (inactive) | > 100 µM (inactive)
C[N+](C)(C)CC1CCCC1=O (configuration not stated) | 2.1 µM (inactive) | 2.48 µM (inactive) | 2.64 µM (inactive) | 2.5 µM (inactive) | 1.25 µM (inactive) | 1.94 µM (inactive) | 5.53 µM (inactive) | 19.5 µM (inactive) | 16 µM (inactive) | 2.98 µM (inactive) |  | 0.0296 µM (active) | 5.68 µM (inactive) | 20.2 µM (inactive) | 1.6 µM (inactive) | < 0.0105 µM (active) | 2.27 µM (inactive) | 1.39 µM (inactive) | 0.306 µM (active) | 0.339 µM (active)
O=C(NNc1nc(-c2ccccc2)cs1)Nc1ccccc1 | 22.7 µM (inactive) | 43.3 µM (inactive) | 30.9 µM (inactive) | 25.4 µM (inactive) | 25.5 µM (inactive) | 20.7 µM (inactive) | 20.7 µM (inactive) | 24 µM (inactive) | 34.8 µM (inactive) |  | 25.3 µM (inactive) | 31.8 µM (inactive) | 20.7 µM (inactive) | 44.1 µM (inactive) | 19.4 µM (inactive) |  | 6.14 µM (inactive) | 21.4 µM (inactive) | 13.4 µM (inactive) | 
COC(=O)c1cnn2c1ccc1ccccc12 | > 100 µM (inactive) | > 100 µM (inactive) | > 100 µM (inactive) | 47.8 µM (inactive) | > 100 µM (inactive) | > 100 µM (inactive) | > 100 µM (inactive) | > 100 µM (inactive) | 78.9 µM (inactive) | > 100 µM (inactive) |  | > 100 µM (inactive) | > 100 µM (inactive) | > 100 µM (inactive) | > 100 µM (inactive) | > 100 µM (inactive) | > 100 µM (inactive) | > 100 µM (inactive) | > 100 µM (inactive) | 
CCN(CC)CCOCC1CCCN2CCCCC12 (configuration not stated) | > 100 µM (inactive) | > 100 µM (inactive) | > 100 µM (inactive) | > 100 µM (inactive) | > 100 µM (inactive) | > 100 µM (inactive) | > 100 µM (inactive) | > 100 µM (inactive) |  | > 100 µM (inactive) | > 100 µM (inactive) | > 100 µM (inactive) | > 100 µM (inactive) | > 100 µM (inactive) | > 100 µM (inactive) |  | > 100 µM (inactive) | > 100 µM (inactive) | > 100 µM (inactive) | 
O=C(Nc1ccc(F)cc1)c1cc2ccc(O)cc2o/c1=N\c1cccc(F)c1 | 18.4 µM (inactive) | 32.7 µM (inactive) | 38.9 µM (inactive) |  | 35.4 µM (inactive) | 28.2 µM (inactive) | 33.5 µM (inactive) | 31.7 µM (inactive) | 18.9 µM (inactive) | 52.7 µM (inactive) | 32.8 µM (inactive) | 28.9 µM (inactive) | 16.1 µM (inactive) |  | 42.8 µM (inactive) | 16.4 µM (inactive) |  |  | 14.8 µM (inactive) | 33.3 µM (inactive)
O=C(c1cc(Cl)ccc1Cl)N1CCN(c2cccc(Cl)c2)CC1 | 14.8 µM (inactive) | 17.7 µM (inactive) | 4.09 µM (inactive) | 19.7 µM (inactive) | 11.4 µM (inactive) |  | 15.2 µM (inactive) | 14.6 µM (inactive) | 10.8 µM (inactive) | 13.6 µM (inactive) | 12.4 µM (inactive) | 31.5 µM (inactive) | 6.59 µM (inactive) | 34.8 µM (inactive) |  | 10.6 µM (inactive) | 11.1 µM (inactive) | 5.6 µM (inactive) | 22.3 µM (inactive) | 26.4 µM (inactive)
CC1=[N+]([O-])C2(CCCC2)N(O)C1(C)C | > 100 µM (inactive) | > 100 µM (inactive) | > 100 µM (inactive) | > 100 µM (inactive) | > 100 µM (inactive) | > 100 µM (inactive) | > 100 µM (inactive) | > 100 µM (inactive) | > 100 µM (inactive) | > 100 µM (inactive) | > 100 µM (inactive) | > 100 µM (inactive) | > 100 µM (inactive) | > 100 µM (inactive) | > 100 µM (inactive) |  | > 100 µM (inactive) | > 100 µM (inactive) | > 100 µM (inactive) | 
C[C@]12CC[C@@H]3c4ccc(OS(N)(=O)=O)cc4CC[C@H]3[C@@H]1CCC2=O [EMATE] | 53 µM (inactive) | > 100 µM (inactive) | 81.3 µM (inactive) | 38.7 µM (inactive) | 30.2 µM (inactive) | 26.6 µM (inactive) | 32.4 µM (inactive) | 31.6 µM (inactive) | 28.7 µM (inactive) | 52.2 µM (inactive) | 36.5 µM (inactive) | 42.7 µM (inactive) | 13.5 µM (inactive) | 73.3 µM (inactive) | 37.6 µM (inactive) |  | 63.4 µM (inactive) | 94 µM (inactive) | 31.1 µM (inactive) | 
